Source: ChEMBL document CHEMBL4033627, “Quest for steroidomimetics: Amino acids derived steroidal and nonsteroidal architectures” (Eur J Med Chem, 2017)

Key:
MDA-MB-231 = assay: Anticancer activity against human MDA-MB-231 cells after 24 hrs by MTT assay; format: functional, cell-based; conditions: MDA-MB-231, 24 h
MCF7 = assay: Anticancer activity against human MCF7 cells after 24 hrs by MTT assay; format: functional, cell-based; conditions: MCF7, 24 h

- IC50 (MDA-MB-231): 30 µM
- IC50 (MCF7): 20 µM
SMILES: Cc1ccc(S(=O)(=O)N2Cc3ccccc3OC[C@@H]2Cc2ccc(O)cc2)cc1
